Assay results published in the supplement of paper PMC10307832.

Tests used:
Test in all cases: relative viability (nuclei count vs DMSO), 5 days (fraction); higher = more cells survive
[1] = compound: CC1=C(C(=NN1)C)CC2=C(C3=C(S2)N(C(=O)N(C3=O)C)CC(C)C)C(=O)N4C[C@@H](CO4)O + O=C(c1cc(Cc2n[nH]c(=O)c3ccccc23)ccc1F)N1CCN(C(=O)C2CC2)CC1 [Olaparib] (partner 8 µM)
How it was run: (§1)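 Values are medians from duplicate plates. Each reflects relative viability, defined as the nuclei count of treated wells over that of vehicle wells. Lung cancer cell lines in 1536-well plates were pin-tool dosed one day after seeding with one drug alone or with a fixed anchor-drug dose plus five library-drug doses (not always all listed) in √10 steps, then fixed, stained and imaged at 4× after 5 days.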

[2] = compound: CC1=C(C(=NN1)C)CC2=C(C3=C(S2)N(C(=O)N(C3=O)C)CC(C)C)C(=O)N4C[C@@H](CO4)O + CS(=O)(=O)CCNCc1ccc(-c2ccc3ncnc(Nc4ccc(OCc5cccc(F)c5)c(Cl)c4)c3c2)o1 [Lapatinib] (partner 2 µM)
How it was run: as §1

[3] = compound: CC1=C(C(=NN1)C)CC2=C(C3=C(S2)N(C(=O)N(C3=O)C)CC(C)C)C(=O)N4C[C@@H](CO4)O + Cc1cc(Nc2cc(N3CCN(C)CC3)nc(Sc3ccc(NC(=O)C4CC4)cc3)n2)n[nH]1 [Tozasertib] (partner 0.1 µM)
How it was run: as §1

[4] = compound: CC1=C(C(=NN1)C)CC2=C(C3=C(S2)N(C(=O)N(C3=O)C)CC(C)C)C(=O)N4C[C@@H](CO4)O + CC(C)C[C@H](NC(=O)[C@H](Cc1ccccc1)NC(=O)c1cnccn1)B(O)O [Bortezomib] (partner 0.002 µM)
How it was run: as §1

Cell Line | relative viability ([1]; first compound 0.0025 µM) | relative viability ([1]; first compound 0.007906 µM) | relative viability ([1]; first compound 0.025 µM) | relative viability ([1]; first compound 0.07906 µM) | relative viability ([1]; first compound 0.25 µM) | relative viability ([2]; first compound 0.0025 µM) | relative viability ([2]; first compound 0.007906 µM) | relative viability ([2]; first compound 0.025 µM) | relative viability ([2]; first compound 0.07906 µM) | relative viability ([2]; first compound 0.25 µM) | relative viability ([3]; first compound 0.0025 µM) | relative viability ([3]; first compound 0.007906 µM) | relative viability ([3]; first compound 0.025 µM) | relative viability ([3]; first compound 0.07906 µM) | relative viability ([3]; first compound 0.25 µM) | relative viability ([4]; first compound 0.0025 µM) | relative viability ([4]; first compound 0.007906 µM) | relative viability ([4]; first compound 0.025 µM) | relative viability ([4]; first compound 0.07906 µM) | relative viability ([4]; first compound 0.25 µM)
NCI-H2126 | 0.962 | 0.951 | 0.874 | 0.865 | 0.914 | 0.816 | 0.739 | 0.78 | 0.741 | 0.739 | 0.923 | 0.835 | 0.832 | 0.788 | 0.901 | 1.11 | 1.15 | 1.07 | 1.07 | 1.15
LXF-289 | 1.06 | 1 | 1.07 | 1.03 | 1.25 | 0.909 | 0.855 | 0.875 | 0.891 | 0.975 | 0.205 | 0.213 | 0.18 | 0.186 | 0.22 | 1 | 0.972 | 1 | 1.02 | 1.07
NCI-H2009 | 0.704 | 0.682 | 0.649 | 0.711 | 0.721 | 1.12 | 1.48 | 0.963 | 1.04 | 1.26 | 0.751 | 0.695 | 0.779 | 0.829 | 0.745 | 1.03 | 1.08 | 0.975 | 1.09 | 1.13
NCI-H2405 | 0.876 | 0.806 | 0.885 | 0.749 | 0.875 | 1.26 | 1.1 |  | 1.18 | 1.12 | 0.697 | 0.729 |  | 0.577 | 0.676 | 0.991 | 0.912 | 0.918 | 0.858 | 0.941
NCI-H1755 | 0.92 | 0.897 | 0.861 | 0.85 | 0.902 | 1.04 | 0.919 | 1.02 | 1.04 | 1.07 | 0.71 | 0.571 | 0.543 | 0.486 | 0.593 | 1.01 | 0.875 | 0.962 | 0.963 | 1.13
HCC-78 | 0.826 | 1 | 0.92 | 0.854 | 0.798 | 0.92 | 0.691 | 0.738 | 0.577 | 0.733 | 0.415 | 0.406 | 0.544 | 0.453 | 0.284 | 0.526 | 0.614 | 0.535 | 0.543 | 0.413
LOU-NH91 | 0.912 | 0.877 | 0.925 | 0.956 | 0.926 | 0.74 | 0.755 | 0.815 | 0.781 | 0.813 | 0.723 | 0.674 | 0.709 | 0.792 | 0.838 | 0.473 | 0.486 | 0.546 | 0.423 | 0.476
NCI-H3122 | 0.62 | 0.659 | 0.64 | 0.618 | 0.628 | 1.06 | 1.03 | 1.01 | 0.993 | 1.02 | 0.37 | 0.242 | 0.376 | 0.414 | 0.485 | 0.963 | 0.978 | 1 | 0.99 | 1.02
